Experimental data reported in ChEMBL document CHEMBL3885861, “Open TG-GATES”.

Organism: Rattus norvegicus
Experiment: Open TG-GATES - Regimen: Daily Repeat
Format: toxicity, organism-based, Sprague-Dawley
Design: regimen Daily Repeat, gender Male, age 6 weeks
Conditions: in vivo, po, 10 mg/kg, route gavage, dose level Low; for APTT / Bas / Eos / Fbg / Hb / Ht / Lym / MCH / MCHC / MCV / Mono / Neu / PT / Plat / RBC / Ret / WBC: tissue Blood; for KIDNEY_L / KIDNEY_R / KIDNEY_TOTAL: tissue Kidney; for LIVER: tissue Liver; for A/G / ALP / ALT / AST / BUN / CRE / Ca / Cl / DBIL / GLC / IP / K / LDH / Na / PL / RALB / TBIL / TC / TG / TP / gamma-GTP: tissue Plasma

## CCCc1cc(=O)[nH]c(=S)[nH]1 [PROPYLTHIOURACIL]
72 h, time 3 day
  TERMINAL_BW: 207 g
  APTT: 15.4 s
  Bas: 0%
  Eos: 0%
  Fbg: 238.6 mg/dL
  Hb: 13.5 g/dL
  Ht: 40.4%
  Lym: 75.2%
  MCH: 21.4 pg
  MCHC: 33.3%
  MCV: 64.3 fL
  Mono: 7.4%
  Neu: 17.4%
  PT: 12.4 s
  Plat: 93.7 x10_4/uL
  RBC: 629.4 x10_4/ul
  Ret: 6.6%
  WBC: 124.3 x10_2/uL
  KIDNEY_L: 0.9 g
  KIDNEY_R: 0.9 g
  KIDNEY_TOTAL: 1.8 g
  LIVER: 10 g
  A/G: 2
  ALP: 1039.8 IU/L
  ALT: 30.4 IU/L
  AST: 54.4 IU/L
  BUN: 20 mg/dL
  CRE: 0.5 mg/dL
  Ca: 11.2 mg/dL
  Cl: 105.8 meq/L
  DBIL: 0 mg/dL
  GLC: 185.4 mg/dL
  IP: 7.1 mg/dL
  K: 4.7 meq/L
  LDH: 81.2 IU/L
  Na: 138 meq/L
  PL: 161.4 mg/dL
  RALB: 3.9 g/dL
  TBIL: 0.3 mg/dL
  TC: 97.6 mg/dL
  TG: 87.4 mg/dL
  TP: 5.9 g/dL
  gamma-GTP: 2 IU/L
[…], time 7 day
  TERMINAL_BW: 233.5 g
  APTT: 15.3 s
  Bas: 0%
  Eos: 0.2%
  Fbg: 252.2 mg/dL
  Hb: 13.9 g/dL
  Ht: 41.5%
  Lym: 86.6%
  MCH: 21 pg
  MCHC: 33.4%
  MCV: 62.8 fL
  Mono: 6.6%
  Neu: 6.6%
  PT: 12.6 s
  Plat: 117.2 x10_4/uL
  RBC: 662.4 x10_4/ul
  Ret: 4%
  WBC: 116 x10_2/uL
  KIDNEY_L: 1 g
  KIDNEY_R: 1 g
  KIDNEY_TOTAL: 1.9 g
  LIVER: 12.4 g
  A/G: 1.8
  ALP: 740.8 IU/L
  ALT: 27.6 IU/L
  AST: 48.8 IU/L
  BUN: 20.4 mg/dL
  CRE: 0.5 mg/dL
  Ca: 11.5 mg/dL
  Cl: 105.6 meq/L
  DBIL: 0.008 mg/dL
  GLC: 169.4 mg/dL
  IP: 7.2 mg/dL
  K: 4.9 meq/L
  LDH: 83.8 IU/L
  Na: 139.6 meq/L
  PL: 174.2 mg/dL
  RALB: 4.1 g/dL
  TBIL: 0.3 mg/dL
  TC: 108 mg/dL
  TG: 116.6 mg/dL
  TP: 6.4 g/dL
  gamma-GTP: 1.4 IU/L
[…], time 14 day
  TERMINAL_BW: 245.3 g
  APTT: 16.4 s
  Bas: 0%
  Eos: 0.4%
  Fbg: 194.6 mg/dL
  Hb: 14.7 g/dL
  Ht: 43.7%
  Lym: 90.6%
  MCH: 20.6 pg
  MCHC: 33.7%
  MCV: 61.1 fL
  Mono: 3.8%
  Neu: 5.2%
  PT: 14 s
  Plat: 101.1 x10_4/uL
  RBC: 715.2 x10_4/ul
  Ret: 1.3%
  WBC: 120.9 x10_2/uL
  KIDNEY_L: 0.9 g
  KIDNEY_R: 0.9 g
  KIDNEY_TOTAL: 1.7 g
  LIVER: 10.5 g
  A/G: 1.7
  ALP: 568 IU/L
  ALT: 27 IU/L
  AST: 52.8 IU/L
  BUN: 26.6 mg/dL
  CRE: 0.7 mg/dL
  Ca: 11.1 mg/dL
  Cl: 106.4 meq/L
  DBIL: 0.006 mg/dL
  GLC: 178.6 mg/dL
  IP: 6.3 mg/dL
  K: 4.3 meq/L
  LDH: 68.4 IU/L
  Na: 141 meq/L
  PL: 152.6 mg/dL
  RALB: 4.2 g/dL
  TBIL: 0.2 mg/dL
  TC: 96.4 mg/dL
  TG: 59.8 mg/dL
  TP: 6.7 g/dL
  gamma-GTP: 2.2 IU/L
[…], time 28 day
  TERMINAL_BW: 243.1 g
  APTT: 15.2 s
  Bas: 0%
  Eos: 1.6%
  Fbg: 176.8 mg/dL
  Hb: 16.3 g/dL
  Ht: 48.4%
  Lym: 85.4%
  MCH: 19.3 pg
  MCHC: 33.7%
  MCV: 57.5 fL
  Mono: 4.8%
  Neu: 8.2%
  PT: 14.8 s
  Plat: 83 x10_4/uL
  RBC: 843.2 x10_4/ul
  Ret: 0.7%
  WBC: 61.3 x10_2/uL
  KIDNEY_L: 0.8 g
  KIDNEY_R: 0.8 g
  KIDNEY_TOTAL: 1.7 g
  LIVER: 7.9 g
  A/G: 2
  ALP: 628 IU/L
  ALT: 35.4 IU/L
  AST: 63.4 IU/L
  BUN: 25.8 mg/dL
  CRE: 0.7 mg/dL
  Ca: 10.5 mg/dL
  Cl: 108.6 meq/L
  DBIL: 0.056 mg/dL
  GLC: 161 mg/dL
  IP: 5.7 mg/dL
  K: 4.2 meq/L
  LDH: 62.6 IU/L
  Na: 141.2 meq/L
  PL: 150.6 mg/dL
  RALB: 4.3 g/dL
  TBIL: 0.2 mg/dL
  TC: 100.8 mg/dL
  TG: 44.6 mg/dL
  TP: 6.5 g/dL
  gamma-GTP: 3.2 IU/L
